Drawing on PubChem BioAssay (NCI), this text covers TGI for 16 compounds.

Each structure is given as a SMILES string.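 Grown in 96-well plates, cells were treated for 48 hours with each compound at five concentrations. Insufficient inhibition: endpoint recorded as highest concentration tested. Definition used: TGI = concentration required for complete inhibition of growth.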

Among the test systems are HCT-15 colon; HOP-62 NSCLC; K-562 leukemia; MALME-3M melanoma; NCI-H226 lung; NCI-H522 lung; SF-539 CNS; TK-10 renal; UACC-62 melanoma; SR leukemia.
Assay in all cases: growth of human tumour cells (NCI), 48 h

As to `Cc1ccc(S(=O)(=O)c2scc(-c3ccccc3)c2C)cc1`, the TGI in the assay with HCT-15 colon, in the assay with HOP-62 NSCLC, with K-562 leukemia, in the assay with MALME-3M melanoma, in the assay with NCI-H226 lung and in the assay with NCI-H522 lung was > 100 µM each time. For the same compound, the TGI in the assay with SF-539 CNS, with TK-10 renal and in the assay on UACC-62 melanoma was > 100 µM in each case.

Turning to `Cc1nc2c(=S)[nH]ncc2[nH]1`, the TGI in the assay on HCT-15 colon, with HOP-62 NSCLC, in the assay with K-562 leukemia, with MALME-3M melanoma, in the assay on NCI-H226 lung and in the assay on NCI-H522 lung was > 100 µM in each case. Also, the TGI in the assay with SF-539 CNS, in the assay with TK-10 renal and in the assay with UACC-62 melanoma was > 100 µM in each case.

In the case of `CN(C)CCNc1ccc(C(=O)NCCCN(C)CCCNC(=O)c2ccc(NCCN(C)C)c3c(=O)c4ccccc4[nH]c23)c2[nH]c3ccccc3c(=O)c12`, the TGI turned out to be 38.5 µM in the assay with HCT-15 colon; 1.5 µM in the assay with HOP-62 NSCLC; 5.27 µM with K-562 leukemia; 0.844 µM with MALME-3M melanoma; 0.148 µM with NCI-H226 lung; 0.0685 µM in the assay with NCI-H522 lung. The results for the TGI in the assay with SF-539 CNS, in the assay on TK-10 renal and with UACC-62 melanoma were < 0.0309 µM, 6.94 µM and 0.776 µM, respectively.

As for `[O-]/[N+](=C\c1ccccc1)[C@H](COCc1ccccc1)c1ccccc1`, the TGI with HOP-62 NSCLC, in the assay on K-562 leukemia, in the assay on MALME-3M melanoma, in the assay with NCI-H522 lung, in the assay with SF-539 CNS and in the assay on TK-10 renal was > 100 µM each time.

Take `COc1c2cc([N+](=O)[O-])cc1CNC(=O)CN1CCOCCOCCN(CCOCCOCC1)CC(=O)NC2`: the TGI in the assay with HCT-15 colon, with HOP-62 NSCLC, in the assay on K-562 leukemia, in the assay on MALME-3M melanoma, with NCI-H226 lung and in the assay on NCI-H522 lung was > 100 µM in each case. Besides, the TGI with TK-10 renal and in the assay with UACC-62 melanoma was > 100 µM in each case.

Regarding `O=C1C=CC2CCC1C2` (stereo unspecified), the TGI was > 100 µM in the assay with HCT-15 colon; > 100 µM in the assay on HOP-62 NSCLC; > 100 µM in the assay with K-562 leukemia; > 100 µM in the assay on MALME-3M melanoma; 98.5 µM with NCI-H226 lung; 65.9 µM in the assay with NCI-H522 lung. For the same compound, the figures for the TGI in the assay with SF-539 CNS, in the assay on TK-10 renal and in the assay on UACC-62 melanoma were 90.2 µM, > 100 µM and > 100 µM, respectively.

Turning to `CNC(=O)c1ccccc1-[s+]1c2ccccc2c(=O)n1C` (stereo unspecified), the TGI with HCT-15 colon, with HOP-62 NSCLC, in the assay on K-562 leukemia, in the assay on MALME-3M melanoma, with NCI-H226 lung and in the assay on NCI-H522 lung was > 100 µM in each case. Moreover, the TGI with SF-539 CNS, in the assay on TK-10 renal and with UACC-62 melanoma was > 100 µM in each case.

Turning to `CCOC(=O)c1cnc(-n2[nH]c(C)c(CCO)c2=O)[nH]c1=O`, the TGI in the assay on HCT-15 colon, in the assay on HOP-62 NSCLC, in the assay with K-562 leukemia, in the assay on MALME-3M melanoma, in the assay with NCI-H226 lung and in the assay on SF-539 CNS was > 100 µM in each case. Also, the TGI in the assay on TK-10 renal and in the assay on UACC-62 melanoma was > 100 µM throughout.

`CC(=O)NC1C(OCc2ccccc2)OC(CO)C(O)C1OCC(=O)NC(C)C(=O)NC(CCC(=O)NCCCCNc1ccc([N+](=O)[O-])c2[nH]c3ccccc3c(=O)c12)C(N)=O` (stereo unspecified): the TGI in the assay on HCT-15 colon, in the assay on HOP-62 NSCLC, with K-562 leukemia, in the assay on MALME-3M melanoma, in the assay with NCI-H226 lung and with SF-539 CNS was > 100 µM throughout. Also, the TGI in the assay on SR leukemia and in the assay on TK-10 renal was > 100 µM each time.

As for `COc1ccc(-c2nc(N)c(C#N)c3c2CCS(=O)(=O)c2ccc(C)cc2-3)cc1OC`, the TGI is > 100 µM in the assay with HCT-15 colon; > 100 µM in the assay on HOP-62 NSCLC; 29.4 µM with K-562 leukemia; > 100 µM in the assay on MALME-3M melanoma; > 100 µM in the assay on NCI-H226 lung; 25.1 µM in the assay on NCI-H522 lung. Moreover, the figures for the TGI in the assay on TK-10 renal and with UACC-62 melanoma were > 100 µM and 51.7 µM, respectively.

Take `Nc1nc2c(=O)c3ccccc3sc2s1`: the TGI was > 100 µM with HCT-15 colon; > 100 µM in the assay with HOP-62 NSCLC; > 100 µM in the assay on K-562 leukemia; 79.1 µM in the assay with NCI-H226 lung; 48.2 µM with SF-539 CNS; > 100 µM in the assay with SR leukemia. Further, the TGI with TK-10 renal is > 100 µM; in the assay on UACC-62 melanoma it was 84 µM.

Consider `Cc1ccc(C)n1-c1ccccc1C1SCCCS1`, for which the TGI with HCT-15 colon, with HOP-62 NSCLC, in the assay with K-562 leukemia, with MALME-3M melanoma, with NCI-H226 lung and in the assay on NCI-H522 lung was > 100 µM each time. For the same compound, the TGI in the assay on SF-539 CNS, in the assay on TK-10 renal and with UACC-62 melanoma was > 100 µM each time.

For the compound `O=C1N[C@H]2c3c(Cl)sc(Cl)c3/C(=N/O)[C@H]2O1`, the TGI with HCT-15 colon, in the assay on HOP-62 NSCLC, in the assay on K-562 leukemia, in the assay on MALME-3M melanoma, in the assay on SF-539 CNS and with SR leukemia was > 100 µM each time. Further, the TGI in the assay with TK-10 renal and in the assay on UACC-62 melanoma was > 100 µM in each case.

As to `COc1ccc(/C=C2\CN(C)Cc3c2nc(N)nc3-c2ccc(OC)cc2)cc1`, the TGI with HOP-62 NSCLC, in the assay with K-562 leukemia, in the assay on MALME-3M melanoma, in the assay with NCI-H226 lung, in the assay on NCI-H522 lung and in the assay with SF-539 CNS was > 100 µM each time. Further, the TGI in the assay with TK-10 renal and in the assay on UACC-62 melanoma was > 100 µM in each case.

As to `CO/C(=N\N=C\c1cc(OC)ccc1OC)c1ccncc1`, the TGI in the assay on HCT-15 colon, in the assay with HOP-62 NSCLC, in the assay on K-562 leukemia, with MALME-3M melanoma, with NCI-H226 lung and in the assay on SF-539 CNS was > 10 µM each time. Further, the TGI in the assay with SR leukemia and in the assay on TK-10 renal was > 10 µM throughout.

Consider `COC(=O)c1cn(CCCC(=O)O)nn1`, for which the TGI in the assay with HCT-15 colon, in the assay with HOP-62 NSCLC, in the assay on MALME-3M melanoma, in the assay with NCI-H226 lung, in the assay on SF-539 CNS and in the assay with TK-10 renal was > 100 µM each time. In the assay on UACC-62 melanoma, the TGI was > 100 µM.
